“And” between values parts separate entries of the source, which are not always exact repeats. Equal entries are not always repeated. “Also recorded” adds a separate entry of the source.
How the values were obtained:
[1] = test system: patients diagnosed with open angle glaucoma; test: IOP measurement after emulsion instillation; type: in vivo, human; conditions: baseline 17.68 ± 4.11, mean ± SD
From the text: (§1) The patients diagnosed with open angle glaucoma in total are 35 eyes of 20 patients, wherein 10 eyes are diagnosed as POAG, and 25 eyes are NTG, besides 2 eyes had received prior corneal refractive surgery, and 1 eye had undergone cataract extraction and intraocular lens implantation. In the aspect of the medication using, 20 eyes are treatment naïve upon entry of the study (that is they are not using IOP lowering medication), and 15 eyes are previously treated with IOP lowering medication. The IOP lowering medication in the treated patients were requested for the following medication washout period: 4 weeks for beta-blockers and prostaglandin analogues, 2-4 weeks for alpha-agonists, and 1 week for carbonic anhydrase inhibitors in order to eliminate the experimental errors.
All patients are received the best corrected visual acuity test (BCVA), IOP measurement, optical coherence tomography (OCT), laser speckle flowgraph (LSFG) evaluation, fundus photo, visual field examination, blood pressure (BP), and heart rate measurement, and then these obtained data are averaged as the baseline data of the experiment, but the intraocular eye disease other than OAG, significant cataract influencing refractive errors or visual field result, systemic disease with resultant visual field defect, and unreliable LSFG results are excluded. […]

[2] = test system: patients diagnosed with open angle glaucoma; test: Blood pressure, ocular perfusion pressure and heart rate measurement; type: in vivo, human; conditions: for MOPP (mean ocular perfusion pressure): baseline 48.82 ± 7.10; for MOPP (mean ocular perfusion pressure) / MHR (mean heart rate) / MBP (mean blood pressure): mean ± SD; for MHR (mean heart rate): baseline 74.03 ± 8.95; for MBP (mean blood pressure): baseline 99.69 ± 9.90
From the text: as §1
(§2) All patients are received the best corrected visual acuity test (BCVA), IOP measurement, optical coherence tomography (OCT), laser speckle flowgraph (LSFG) evaluation, fundus photo, visual field examination, blood pressure (BP), and heart rate measurement, and then these obtained data are averaged as the baseline data of the experiment, but the intraocular eye disease other than OAG, significant cataract influencing refractive errors or visual field result, systemic disease with resultant visual field defect, and unreliable LSFG results are excluded.

[3] = test system: optic nerve head area; test: Laser speckle flowgraph (LSFG) evaluation, mean blur rate and pulse waveform; type: in vivo, human; conditions: for MS (mean skew): baseline 11.92 ± 3.94; for MS (mean skew) / MBRt (mean blur rate of tissue area) / MF (mean fluctuation) / MATI (mean acceleration time index) / MBRv (mean blur rate of vessel area) / MBOT (mean blowout time) / MBOS (mean blowout score): mean ± SD; for MBRt (mean blur rate of tissue area): baseline 12.65 ± 3.57; for MF (mean fluctuation): baseline 13.76 ± 3.79; for MATI (mean acceleration time index): baseline 32.62 ± 5.80; for MBRv (mean blur rate of vessel area): baseline 40.24 ± 10.65; for MBOT (mean blowout time): baseline 50.53 ± 8.53; for MBOS (mean blowout score): baseline 75.27 ± 6.51; for MBRt (%), percentage of baseline / MBRv (%), percentage of baseline: baseline 100.0 ± 0
From the text: as §1, §2
In the LSFG evaluation, one drop of said emulsion is instilled in the examined eyes at clinic. Afterward, LSFG measurements are repeated at 30 minutes and 2 hours post-LBN instillation. The patients would continuously instill the emulsion once every night for one month, and return to clinic again for another LSFG exam. Laser speckle flowgraph (LSFG-NAVI version 3.1.39.2 software, Softcare Ltd., Fukuoka, Japan) are used to measure the mean blur rate (MBR) of the optic nerve head area for pulse waveform analysis in all patients. Averaged MBR and pulse waveform parameters are documented at each LSFG measurement in order to evaluate the effect of latanoprostene bunod using on microcirculation of optic nerve head.

[4] = Stability study (ICH Q1A(R2)) of the emulsion; type: physicochemical; conditions: accelerated condition
Protocol: In this section, stability study is conducted using the abovementioned Example 1 as an example. The stability study is performed according to common practices known such as ICH HARMONISED TRIPARTITE GUIDELINE-Topic Q1A(R2) <Stability Testing of new Drug Substances and Products> and inspection items are screened based on USP chapter 771 and 1771. The stability study is carried out under two conditions: temperature of 5° C.±3° C. with no humidity; and temperature of 25° C.±2° C. with the relative humidity of 60%±5%. LBN content is determined with an HPLC equipped with an UV detector and using a mixture of two mobile phases. The HPLC condition reports as the following: [table]

[5] = all time points, Wilcoxon signed rank test

SMILES: O=C(CCC/C=C\C[C@@H]1[C@@H](CC[C@@H](O)CCc2ccccc2)[C@H](O)C[C@@H]1O)OCCCCO[N+](=O)[O-] [LBN, Latanoprostene bunod]
- MIOP (mean intraocular pressure) ([1]; 30 minutes after instillation): 18.29 ± 4.00 mmHg
- MIOP (mean intraocular pressure) ([1]; 2 hours after instillation): 17.24 ± 4.14 mmHg
- MOPP (mean ocular perfusion pressure) ([2]; 1 month): 50.80 ± 12.06 mmHg
- MHR (mean heart rate) ([2]; 1 month): 72.03 ± 10.68 min⁻¹
- MBP (mean blood pressure) ([2]; 1 month): 98.08 ± 12.06 mmHg
- MOPP (mean ocular perfusion pressure) ([2]; 30 minutes): 47.87 ± 8.07 mmHg
- MBP (mean blood pressure) ([2]; 30 minutes): 99.62 ± 11.54 mmHg
- MOPP (mean ocular perfusion pressure) ([2]; 2 hours): 48.65 ± 9.48 mmHg
- MHR (mean heart rate) ([2]; 2 hours): 77.77 ± 11.11 min⁻¹
- MBP (mean blood pressure) ([2]; 2 hours): 98.88 ± 14.12 mmHg
- mean blood pressure (MBP), difference from baseline [2, 5]: not significantly different
- mean ocular perfusion pressure (MOPP), difference from baseline [2, 5]: not significantly different; also recorded: has not differed
- MS (mean skew) ([3]; 1 month): 10.99 ± 2.30 AU
- MBRt (mean blur rate of tissue area) ([3]; 1 month): 12.67 ± 3.80 AU
- MF (mean fluctuation) ([3]; 1 month): 13.44 ± 3.31 AU
- MATI (mean acceleration time index) ([3]; 1 month): 31.71 ± 4.11%
- MBRv (mean blur rate of vessel area) ([3]; 1 month): 45.49 ± 12.22 AU
- MBOT (mean blowout time) ([3]; 1 month): 52.67 ± 6.62 AU
- MBOS (mean blowout score) ([3]; 1 month): 77.26 ± 6.26 AU
- MBRt (%), percentage of baseline ([3]; 1 month): 101.84 ± 15.33%
- MBRv (%), percentage of baseline ([3]; 1 month): 113.91 ± 26.53%
- MS (mean skew) ([3]; 30 minutes): 11.84 ± 2.08 AU
- MBRt (mean blur rate of tissue area) ([3]; 30 minutes): 12.48 ± 3.04 AU
- MF (mean fluctuation) ([3]; 30 minutes): 13.94 ± 4.30 AU
- MATI (mean acceleration time index) ([3]; 30 minutes): 31.51 ± 4.04%
- MBRv (mean blur rate of vessel area) ([3]; 30 minutes): 41.95 ± 10.03 AU
- MBOT (mean blowout time) ([3]; 30 minutes): 49.76 ± 6.17 AU
- MBOS (mean blowout score) ([3]; 30 minutes): 74.44 ± 7.60 AU
- MBRt (%), percentage of baseline ([3]; 30 minutes): 100.63 ± 14.37%
- MBRv (%), percentage of baseline ([3]; 30 minutes): 105.97 ± 16.49%
- MS (mean skew) ([3]; 2 hours): 11.82 ± 2.58 AU
- MBRt (mean blur rate of tissue area) ([3]; 2 hours): 12.73 ± 3.46 AU
- MF (mean fluctuation) ([3]; 2 hours): 13.46 ± 3.95 AU
- MBRv (mean blur rate of vessel area) ([3]; 2 hours): 45.14 ± 10.59 AU
- MBOT (mean blowout time) ([3]; 2 hours): 52.09 ± 5.56 AU
- MBOS (mean blowout score) ([3]; 2 hours): 76.24 ± 6.67 AU
- MBRt (%), percentage of baseline ([3]; 2 hours): 101.84 ± 13.71%
- MBRv (%), percentage of baseline ([3]; 2 hours): 114.36 ± 20.02% and 114.36 ± 20.2 %
- mean blur rate of tissue area (MBRt), difference from baseline [3, 5]: not significantly different
- assay of LBN upon storage [4]: remained unchanged
